Data reported in patent US10799501B2, “Combination of an inhibitor of PARP with an inhibitor of GSK-3 or DOT1L” (King's College London, priority 2015, dated 2020).

Assays:
[1] = tested on: AML1-ETO primary human leukemia cells; test: In vitro treatment of primary AML patient cells carrying AML1-ETO; type: cell-based
Description: NB4-LR2 and THP1 cell lines (kindly provided by Dr Arthur Zelent and Professor Mel Greaves respectively) were cultured in RPMI (Invitrogen) supplemented with 10% selected FBS (R10), 2 mM L-Glutamine. Kasumi cell line (kindly provided by Dr Olaf Heidenreich) was cultured in RPMI-Hepes modified (Sigma) supplemented with 20% selected FBS and 2 mM L-[…]). Cell lines were validated by qPCR for their respective oncogenes. NIH3T3 and GP2 cell line was cultured in DMEM (Invitrogen) supplemented with 10% selected FBS and 2 mM L-Glutamine. Human primary AML cells were cultured in IMEM (Invitrogen) supplemented with […], 2 mM L-Glutamine, 10 ng/mL each of human cytokines, IL3, IL6, SCF, FLT3 ligand, and TPO. Cells were kept at 37° C. and 5% CO2. Use of human primary cells was approved by King's College London committee and consents of the patients were obtained. […] Colonies were scored 6-7 days after plating. […] Cells were counted in at least 5 fields for each slide, for a total of over 100 cells per condition. […] Cells were then washed in PBS and the differentiated cells were indicated by the deposition of dark blue insoluble formazan (NBT positive cells) and the percentage of differentiated cells were counted under microscopy. At least 200 cells were counted in most of the cases.

[2] = tested on: AML1-ETO transformed cells; test: In vitro drug treatment of primary murine hematopoietic cells transformed by AML1-ETO (RTTA); type: cell-based, mouse
Description: Transduction using concentrated viral supernatant expressing the oncogene of interest was carried out by centrifugation (spinoculation) at 800 g at 32° C. for 2 hours in the presence of 5 μg ml^-1 polybrene (Sigma-Aldrich). Cells were subsequently plated in 1% methylcellulose medium ([…]; Stem Cell Technologies) containing 20 ngml^-1 SCF, 10 ngml^-1 IL-3, 10 ngml^-1 IL-6 and 10 ngml^-1 granulocyte macrophage colony-stimulating factor (GM-CSF) and appropriate selection antibiotic. Colonies were counted after 7 days of culture and replated every 6-7 days at 5×103-1.5×10^4 cell density. Re-plating was performed weekly to generate primary cell lines for further analysis. After the third or fourth round of plating, cells were cultured in R20/20 medium (RPMI 1640, 20% FCS, 20% WEHI-conditioned medium, 2 mM L-glutamine, 100 U/ml penicillin, and 100 μg/ml streptomycin) supplemented with 20 ngml^-1 stem cell factor (SCF), 10 ngml^-1 interleukin (IL)-3, and 10 ngml^-1 IL-6 to establish cell lines. All recombinant murine cytokines were from PeprotechEC. […] Colonies were scored 6-7 days after plating. For other in vitro studies, mouse leukemic cells and primary AML cell lines were subjected to continuously Olaparib (1 μM) or LiCl (8 mM) treatment in liquid culture for whole duration as indicated in the figures or figure legends. For human leukemic cell lines, experiments were performed as described above with 5 μM Olaparib. Cells were cytospun onto a glass slide at 400 g for 5 minutes and then fixed for 10 minutes with 2% formaldehyde/0.2% glutaraldehyde (Sigma Aldrich). Cells were then washed with PBS, and then incubated at 37° C. for at least 2 hours with a staining solution (30 mM Citric Acid/Phosphate buffer, 5 mM K4Fe(CN)6, 5 mM K3Fe(CN)6, 150 mM NaCl, 2 mM MgCl2, 1 mg/ml X-Gal) (All reagents from Sigma-Aldrich)62. Cells were counted in at least 5 fields for each slide, for a total of over 100 cells. The percentage of senescent cells was calculated by the percentage of the number of blue cell in the field. Cells were cytospun onto a glass slide at 400 g for 5 minutes and then fixed for 30 minutes in 4% PFA and permeabilized and blocked in 0.8% Tx-100, 10% FBS/1% BSA (Sigma-Aldrich) in PBS for 15 min at room temperature. Mouse anti mouse γH2AX ([…]) (Upstate clone JBW301#05-636) and rabbit anti mouse RAD51 (Santa Cruz Biotecnology […]# sc-8349) were diluted in TBS containing 10% FBS/1% BSA and incubated overnight at 4C. […] Slides were then washed five times at 10 min each with PBS. Slides were briefly washed in water and air-dried prior to mounting with Mowiol-DABCO and a coverslip. Cells were counted in at least 5 fields for each slide, for a total of over 100 cells per condition. 1×10^5 cells were cytospun for 5 min at 300 g onto glass slides. Slides were then stained with May-Grunwald solution (Sigma-Aldrich) for 3 min at room temperature. After washing in water, they were incubated for 20 min in Giemsa solution (Sigma-Aldrich) (1:20 in water). Slides were washed again in water before being mounted with Mowiol. Cells were counted in at least 5 fields for each slide, for a total of over 100 cells per condition. NBT reduction assay were performed to determine myeloid differentiation. […] Cells were then washed in PBS and the differentiated cells were indicated by the deposition of dark blue insoluble formazan (NBT positive cells) and the percentage of differentiated cells were counted under microscopy. At least 200 cells were counted in most of the cases.

For O=C(c1cc(Cc2n[nH]c(=O)c3ccccc23)ccc1F)N1CCN(C(=O)C2CC2)CC1 [Olaparib, 4-[(3-[(4-cyclopropylcarbonyl)piperazin-4-yl]carbonyl)-4-fluorophenyl]methyl(2H)-phthalazin-1-one], the “differentiation of primary AML cells” value ([1]; 1 μM Olaparib for 5 days) was “increased differentiation”, the “in vitro PARPi response (sensitivity)” value ([1]; primary patient cells treated 5 days) was “highly sensitive” and the “suppression of colony forming ability” value ([2]; 1 uM Olaparib, methylcellulose 7 days, p<0.001) was “about 90%”. The “senescence (β-galactosidase staining)” value ([2]; PARPi 24 hrs and 48 hrs) was “underwent significant senescence”, the “Rad51 recruitment to DNA damage sites (RAD51 foci)” value ([2]; PARPi treatment for 6 hours) was “no significant Rad51 recruitment” and the “percentage of differentiation (morphology and NBT reduction)” value ([2]; time course PARPi treatment) was “significantly increased the percentage of differentiation”. The “cells with γH2AX and Rad51 foci ratio greater than 2” value ([2]; upon PARPi treatment) was “around 80%”.
